Experiments:
PC3 cells = experiment: Clonogenic survival assay of PC3 cells; format: cell-based, human; conditions: combination treatment with MTA, approximately 2 weeks
Protocol: • 1. 60% confluent plates of experimental cell line was taken and subjected to trypsinization • 2. Single cell suspension of the experimental cell line was made in the regular growth medium and number of cells per mililiter of suspension counted • 3. A fixed low number of cells were plated out in a volume of 3 ml of growth medium in each well of 6 well culture dishes and incubated overnight at 37° C. in a CO2 incubator • 4. Measured volumes of the inhibitor and substrate solutions in sterile deionised cell culture water was added to each well of the 6 well plates. Typically each concentration of inhibitor and/or substrate was added in triplicate wells to calculate error bars. […] At the end of the period of incubation growth medium was removed from each well, attached cells were washed once with PBS and fixed by addition of […] Formalin solution to each well and keeping at room temperature for ˜1 hour. • 7. […] Number of crystal violet stained colonies in each well containing more than 60 cells per colony was counted. • 10. Assuming each colony originated from a single surviving cell post-treatment and taking the number of colonies in the untreated control well as 1, the fraction of surviving cells in each well was calculated and plotted in a graph. […]

Cal27 cells = Cal27 cells grown 8 days with compound and MTA; format: cell-based; conditions: 1 μM compound + 20 μM MTA, G2/M arrest and apoptosis
Protocol: FIGS. 25A and 25B show Cal27 cells grown for 8 days as control (untreated), in the presence of 20 μM MTA, 1 μM compound (2) alone or in combination (1 μM compound (2)+20 μM MTA).

[1] = system: TRAMP (transgenic adenocarcinoma of mouse prostate) mice; experiment: Treatment of TRAMP mice (tumour mass, metastasis, MRI, histology, polyamines); format: in vivo; conditions: for tumour weight upon dissection: TRAMP mouse treated with 1 mM compound
Protocol: MRI experiments were performed using a 9.4T 21 cm bore horizontal bore magnet (Magnex Scientific) Varian INOVA MRI system (Fremont, Calif.) equipped with a 28 mm inner diameter quadrature birdcage coil. Mice were anesthetized with isoflurane inhalation anesthesia (1-1.5% in 100% O2 administered via a nose cone) and positioned in the MRI coil. Body temperature was maintained (37-38° C.) using a homeothermic warming system. After acquiring scout images, multi-slice spin-echo imaging with an echo time of 18 ms and a repetition time of 400 ms ms was performed. A 40 mm field of view with a 256×256 matrix size was used. Nine to 15 slices along the transverse, sagittal, and coronal planes were acquired in each multi-slice experiment with a slice thickness of 1 mm and the gap between slices of 0.5 mm. MRI data were processed off-line with MATLAB-based MRI analysis software.
Spent media and perchloric acid extracts of both PC3 cells and tissue samples were subjected to purification via cation exchange chromatography and dansyl-derivatized with minor changes. Disposable 10 ml BIO-RAD columns were centrifuged at 4,000 rpm for 3 minutes. Sodium carbonate used for derivatization was adjusted to pH 9.3 and the concentration of dansyl-chloride was adjusted to 100 mM. Dansyl-polyamines were quantitated by a Waters HPLC/Fluorescence system. A Phenomenex Luna 5μ C18 column was used with a mobile phase of 30% acetonitrile in a 50 mM ammonium acetate buffer at pH 6.8 (eluent A) and 100% acetonitrile (eluent B). Fluorescence detection was monitored by excitation at 338 nm and emission at 500 nm.
Long-Term: Sterile solutions of 100 μM compound (2) (pH ˜6.4). Water bottles were autoclaved prior to filling with sterile inhibitor solutions. Water consumption was monitored every other day, with fresh inhibitor solution being administered to prevent bacterial growth. Mice were control-sacrificed and tissues (genitourinary system, liver, lungs) were collected for histology and polyamine analysis. Mass and dimensions of excised genitourinary system tumours were recorded. Sections of small intestine were also removed for toxicity analysis via H&E staining.

SCC25 cells = experiment: Time dependent proliferation of SCC25 cells (WST-1 assay); format: cell-based, human; conditions: 1 μM compound + 20 μM MTA
Protocol: SCC25 cells were maintained in MEM Eagle's media supplemented with 10% fetal bovine serum, 100 units/ml penicillin, 100 μg/mL streptomycin, 0.1 mM non essential amino acids and 1 mM sodium pyruvate. Cell survival was evaluated using the WST-1 assay (Kicska G A, long Li, Hong H, et al. Proc Natl Acad Sci USA 2001; 98:4593-98). Cells were seeded onto 96 well plates at a density of 10^4 cells per well, with either no additions, 1 μM MT-compound (2), 20 μM MTA or 1 μM compound (2)+20 μM MTA. IC50 was determined following the manufacturer's protocol (Roche Applied Science, Ind.). Cells were grown and measured in triplicate or quadruplicate and the error bars show the mean±SD of the multiple samples.

[2] = TRAMP mice, 100 μM in drinking water, n=12, 29 ± 7 weeks treated

With `CSC[C@H]1CN(Cc2c[nH]c3c(N)ncnc23)C[C@@H]1O` [compound (2)] the “effect on PC3 cells in clonogenic assay” value (PC3 cells) was “cytostatic effect”, the “number of viable Cal27 cells” value (Cal27 cells) was “decreased” and the “Metastatic Cancer” value [1, 2] was 8%. The “Tumor Size” value [1, 2] was 1.7 ± 0.8 g, the prostate cancer progression ([1]; TRAMP mice, alone or in combination with MTA) was “inhibited” and the “toxicity: intestinal crypts (H&E), hair loss, GI problems” value ([1]; TRAMP mice, long-term treatment) was “No alterations, inflammations, or irregularities were observed”. The “tumour weight upon dissection” value ([1]; dissection at 34 weeks of age (Panel E)) was 0.41 g, the “tumour weight upon dissection” value ([1]; dissection at 39 weeks of age (Panel F)) was 0.64 g and the “TRAMP liver or GUS polyamine levels” value ([1]; extended treatment, 100 μM in drinking water) was “no significant alterations”. The “size and incidence of preinvasive tumors, incidence of invasive cancer and metastasis” value ([1]; treated TRAMP mice, histology) was “decreased” and the cell proliferation (SCC25 cells) was “reduces cell proliferation”.

Source: patent US8916571B2, “Methods of treating cancer using inhibitors of 5′-methylthioadenosine phosphorylase” (Albert Einstein College of Medicine of Yeshiva University, priority 2006, dated 2014)
